# Data as given in patent US8598122B2, “Antagonistic peptides for frizzled-1 and frizzled-2” (Universiteit Maastricht, priority 2009, dated 2013).
# Entries after “also recorded” stand apart in the source; their conditions may differ. Where a SMILES comes first, the peptide text is derived from it.
# Columns and labels:
# [1] = test system: C-FIT cells (cardiac fibroblasts immortalized with telomerase); assay: Migration (wound/scratch) assay with C-FIT cells overexpressing Fzd-1 or -2; type: cell-based, rat
# Method: For this assay, we used rat cardiac fibroblasts, which were immortalized with telomerase, the C-FIT cell line. This cell line was characterized previously and resembles features of primary cardiac fibroblasts. C-FIT cells were plated, treated when they were 70% confluent and a wound was made with a pipette tip at the moment of 100% confluence.
# This assay was first tested with the natural ligand Wnt3a, in combination with frizzled-1 and -2 overexpression. […] Next step was to see whether the antagonist could counteract this. (See FIG. 4.)
# Day 1: • Plate cells in 12-well plates
# Day 2: • Transfection (see protocol)
# Day 3: • Addition of conditioned medium
# Day 4: • Make a scratch. This is time point zero.
# Making pictures every six hours and analyzing the scratch width.
# Cells were plated on day 0, and cultured until 70% confluence before transfection or treatment. Migration assays started 48 hours after transfection and/or treatment. The time point where the scratch was made, is indicated as 0 hours. Scratch width was measured at this time point, and also after 6, 12, and 24 hours.
# [2] = test system: Wnt/Fzd signal transduction cascade; assay: Luciferase activity in HEK293-superTOPflash cells (Wnt/Fzd signal transduction cascade); type: cell-based, human; conditions: without Wnt3a
# From the text: Human embryonic kidney (HEK) cells were used for screening. These cells have a luciferase construct stably transfected into the genome (see FIG. 2A), such that when the frizzled receptor is activated and β-catenin is increased, the luciferase is activated by transcription and light can be measured.
# Three areas of high homology that contained two cysteines are underlined (UM207), (UM208) and (UM206). In FIGS. 9B through 9D, the inhibitory effect of these three peptides on Wnt3a-induced luciferase activity in HEK293-superTOPflash is shown. […] Again, the peptides by themselves had no effect on the luciferase activity.
# [3] = test system: mice with myocardial infarction; assay: Myocardial infarction model in mice, UM206 by osmotic minipump; type: in vivo
# Method: All animals were subjected to extensive echocardiography studies for the assessment of myocardial infarct size, LV cavity dimensions and ventricular function. Echocardiography examination was performed under 2% isofluorane. Echocardiograms were recorded with Philips Sonos 5500 ultrasound system (Philips, Eindhoven, the Netherlands) using a 20-MHz linear probe.
# The animals were anaesthetized with urethane ([…] body weight, i.p., Sigma-Aldrich) followed by intubation and connected to a rodent ventilator (Hugo Sachs, March-Hugstetten, Germany). Body temperature was maintained at 37° C. The mice were then allowed to stabilize prior to hemodynamic measurements. A high-fidelity catheter tip micromanometer (Mikro-tip1.4F, SPR-671; Millar Instruments, Houston TX, USA) was inserted through the right carotid artery into the left ventricular cavity. Ventricular pressure was measured. Maximal positive and negative pressure development (+dP/dt and −dP/dt) and heart rate were determined on a beat-to-beat basis. The heart was then stimulated by an i.v. ramp-infusion of dobutamine (Sigma-Aldrich) using a micro-injection pump (Model 200 Series, KdScientific, Boston, Mass., USA).
# One-half of the hearts of the mice was embedded in paraffin and cut in 4 μm sections. The paraffin sections were rehydrated and washed in PBS. One section was stained with AZAN, allowing an accurate determination of the infarct size. To visualize the myofibroblasts in the infarct area, the sections were incubated with an antibody directed against a-smooth muscle actin (Sigma-Aldrich), followed by incubation with the peroxidase-conjugated secondary antibody (Vector laboratories). Nuclei were visualized by hematoxylin. Photos were taken with a Leica (CTR500, 63x/0.85) camera and analyzed with the Quantimet program (QWin/QGo). An examiner blinded to the groups of the animals obtained all measurements. For the experiments with Rhodamine-labeled UM206, frozen sections (4 μm) of mouse kidney and small intestine were used.
# [4] = test system: kidney; assay: qPCR of Wnt target genes in kidney after long-term UM206 administration; type: in vivo, mice; design: key to Rel. exp. Col I / Rel. exp. DDK 2 / Rel. exp. DDK 3 / Rel. exp. Twist: expression normalized to cyclophilin housekeeping gene; key to Rel. exp. α-SMA / Rel. exp. DDK 1 / Rel. exp. α-actin / Rel. exp. LEF / Rel. exp. FN: relative expression, cyclophilin as housekeeping gene
# From the text: RNA was isolated using the Trizol method (Invitrogen). For the RT-PCR, the RNA was transcribed to cDNA with iscript™ cDNA synthesis kit (Bio-Rad, Hercules Calif., USA), Syber green (Eurogentec, Ghent, Belgium) was used for the detection of cDNA levels and cyclophilin served as the house keeping gene. In Supplementary methods panel 5, the primer sequences are shown.
# [5] = biological target: T1, mouse Fzd-2 (Mus musculus, UniProt Q9JIP6); assay: Antagonism of Wnt3a activation of mouse Fzd-2 (data not shown); type: cell-based
# T1 construct: expressed in transfected cells
# From the text: (§1) In FIG. 3, Panel E, the efficacy of UM206 to block the Wnt3a-induced activation of luciferase activity in HEK293 superTOPflash cells transfected with different Fzds is shown.
# [6] = biological target: T2, mouse Fzd-1 (Mus musculus, UniProt O70421); assay: Antagonism of Wnt3a activation of mouse Fzd-1 (data not shown); type: cell-based
# T2 construct: expressed in transfected cells
# From the text: as §1
# [7] = five weeks treatment, vs saline
# T1 sequence (Q9JIP6 29-570): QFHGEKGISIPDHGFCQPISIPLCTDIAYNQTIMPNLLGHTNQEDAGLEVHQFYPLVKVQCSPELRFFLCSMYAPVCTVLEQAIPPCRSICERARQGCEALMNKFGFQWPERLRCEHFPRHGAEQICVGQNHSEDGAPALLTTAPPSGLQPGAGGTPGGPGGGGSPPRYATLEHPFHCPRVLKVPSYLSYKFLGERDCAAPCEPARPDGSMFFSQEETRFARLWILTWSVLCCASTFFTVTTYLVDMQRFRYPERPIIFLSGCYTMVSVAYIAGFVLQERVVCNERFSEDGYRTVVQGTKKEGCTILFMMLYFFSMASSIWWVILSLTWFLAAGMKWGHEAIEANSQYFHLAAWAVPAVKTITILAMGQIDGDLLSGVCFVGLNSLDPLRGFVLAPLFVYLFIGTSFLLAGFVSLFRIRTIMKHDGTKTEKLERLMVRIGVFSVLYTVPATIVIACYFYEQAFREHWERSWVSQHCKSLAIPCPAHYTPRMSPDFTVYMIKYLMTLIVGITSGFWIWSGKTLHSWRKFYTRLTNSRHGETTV
# T2 sequence (O70421 69-642): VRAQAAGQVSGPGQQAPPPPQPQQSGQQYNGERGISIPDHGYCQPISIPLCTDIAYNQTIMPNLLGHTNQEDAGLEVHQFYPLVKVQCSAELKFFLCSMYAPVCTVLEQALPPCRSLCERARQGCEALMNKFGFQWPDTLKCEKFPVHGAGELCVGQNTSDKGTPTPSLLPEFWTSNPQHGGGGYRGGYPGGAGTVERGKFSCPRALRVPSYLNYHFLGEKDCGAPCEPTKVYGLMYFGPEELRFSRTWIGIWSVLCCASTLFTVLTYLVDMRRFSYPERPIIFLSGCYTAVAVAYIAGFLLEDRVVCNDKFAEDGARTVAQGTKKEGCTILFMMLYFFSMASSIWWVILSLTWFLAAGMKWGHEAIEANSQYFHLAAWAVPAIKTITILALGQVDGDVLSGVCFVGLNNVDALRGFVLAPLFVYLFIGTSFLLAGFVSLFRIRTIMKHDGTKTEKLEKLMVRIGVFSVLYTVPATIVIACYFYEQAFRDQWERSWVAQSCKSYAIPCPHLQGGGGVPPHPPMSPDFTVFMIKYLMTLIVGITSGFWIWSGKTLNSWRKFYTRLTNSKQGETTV
smiles,measurement,setting,value
"CSCC[C@H](NC(=O)CNC(=O)[C@H](CCC(=O)O)NC(=O)[C@H](CO)NC(=O)[C@@H](NC(=O)[C@H](CCCCN)NC(=O)[C@H](CC(N)=O)NC(=O)[C@H](CS)NC(C)=O)[C@@H](C)O)C(=O)N[C@@H](CC(=O)O)C(=O)NCC(=O)N[C@@H](CS)C(=O)N[C@@H](CCC(=O)O)C(=O)N[C@@H](CC(C)C)C(N)=O [UM206, Ac-Cys-Asn-Lys-Thr-Ser-Glu-Gly-Met-Asp-Gly-Cys-Glu-Leu-NH2] (Ac-CNKTSEGMDGCEL-NH2)",effect of UM206 alone on cell migration,[1],no effect
same,Counteraction of Wnt3a/Wnt5a-induced attenuation of migration,"[1]; UM206 1.10^−8 M, Fzd-1 or -2 overexpression",migration was reset to the migration speed of the control; also recorded: blocked completely; also recorded: block this effect completely
same,Luciferase activity induced by the peptide by itself,[2],none of the three peptides by itself could induce an increase in luciferase activity
same,tangents on the pressure time curve (dP/dt),"[3]; Millar catheter in left ventricle, vs saline",significantly steeper
same,change of ejection fraction (echocardiography),[3]; UM206-treated vs saline,doubling
same,reduction in end diastolic volume of the left ventricle,[3]; UM206-treated vs saline,40%
same,AoD,"[3]; echocardiography, AVG",0.18 cm
same,EDV_L,"[3]; echocardiography, AVG",0.132 cm^3
same,EF_L,"[3]; echocardiography, AVG",31.4%
same,ESV_L,"[3]; echocardiography, AVG",0.090 cm^3
same,FS,"[3]; echocardiography, AVG",13.20%
same,IVS anterior,"[3]; echocardiography, AVG",8.10%
same,IVSd anterior wall,"[3]; echocardiography, AVG",0.07 cm
same,IVSd posterior wall,"[3]; echocardiography, AVG",0.09 cm
same,IVSs anterior wall,"[3]; echocardiography, AVG",0.07 cm
same,IVSs posterior wall,"[3]; echocardiography, AVG",0.14 cm
same,LVAs,"[3]; echocardiography, AVG",0.30 cm^2
same,LVIDd,"[3]; echocardiography, AVG",0.59 cm
same,LVIDs,"[3]; echocardiography, AVG",0.52 cm
same,SV_L,"[3]; echocardiography, AVG",0.041 cm^3
same,LVLd,"[3]; echocardiography, AVG, first listing (r8)",0.91 cm
same,LVLs,"[3]; echocardiography, AVG, first listing (r10)",0.86 cm
same,LVLd,"[3]; echocardiography, AVG, second listing (r12)",0.95 cm
same,LVLs,"[3]; echocardiography, AVG, second listing (r13)",0.89 cm
same,LVAd,"[3]; echocardiography, mice post-MI, AVG",0.38 cm^2
same,mortality / survival after MI,"[3]; five weeks after MI, 6 microgram/kg/day minipump, saline 35% died",not a single mouse had died; also recorded: completely prevented the mortality
same,wet lung weight of surviving saline-treated mice higher than in UM206-treated mice,[3]; five weeks post-MI,40%
same,blood vessels in the infarct area,[3]; [7],increased amount of blood vessels
same,collagen levels in the infarct area,[3]; [7],reduced collagen levels
same,"a-SMA levels in infarcts (qPCR, Western blotting)","[3]; five-week-old infarcts, vs saline",significantly higher
same,Diastolic pressure,"[3]; hemodynamic measurements, AVG",1.27 mmHg
same,Left ventricular pressure,"[3]; hemodynamic measurements, AVG",10.14 mmHg
same,Maximum negative slope,"[3]; hemodynamic measurements, AVG",−2542.08 mmHg/sec
same,Maximum negative slope/pressure,"[3]; hemodynamic measurements, AVG",32.84 s⁻¹
same,Maximum positive slope,"[3]; hemodynamic measurements, AVG",5343.84 mmHg/sec
same,Maximum positive slope/pressure,"[3]; hemodynamic measurements, AVG",69.13 s⁻¹
same,Pressure of negative slope,"[3]; hemodynamic measurements, AVG",−9.44 mmHg
same,Pressure of positive slope,"[3]; hemodynamic measurements, AVG",17.78 mmHg
same,Systolic pressure,"[3]; hemodynamic measurements, AVG",27.93 mmHg
same,Heart rate,"[3]; hemodynamic measurements, mean of 26 animals",106.32 beats/min
same,amount of myofibroblasts,"[3]; in vivo model of myocardial infarction, in comparison to 4%",20%
same,adverse effects of chronic administration,"[3]; mouse, in vivo",did not observe any adverse effects
same,"effects on other organs known to contain Fzd-2, including kidney and small intestine","[3]; mouse, in vivo",did not observe any effects
same,myofibroblast numbers in the infarct area relative to saline-treated mice,[3]; two weeks post-MI,more than four-fold; also recorded: four-fold
same,infarct area size,"[3]; vs saline-treated mice, 2 and 5 weeks after MI",significantly smaller
same,thickness of the infarct area,"[3]; vs saline, both time points",significantly thicker
same,influence on gene expression in the kidney,[4]; UM206 for five weeks,These data indicate that UM206 had no influence on gene expression in the kidney.
same,Rel. exp. Col I,[4]; kidney,1.39
same,Rel. exp. DDK 1,[4]; kidney,1.87
same,Rel. exp. DDK 2,[4]; kidney,1.44
same,Rel. exp. DDK 3,[4]; kidney,0.87
same,Rel. exp. FN,[4]; kidney,1.66
same,Rel. exp. LEF,[4]; kidney,1.70
same,Rel. exp. Twist,[4]; kidney,1.49
same,Rel. exp. α-SMA,[4]; kidney,1.21
same,Rel. exp. α-actin,[4]; kidney,1.06
same,Antagonizing activation of mouse Fzd-2 by Wnt3a,[5],fully effective
same,Antagonizing activation of mouse Fzd-1 by Wnt3a,[6],fully effective
